In patent publication US20090215713A1, “Use of atp for the manufacture of a medicament for the prevention and treatment of oxidative stress and related conditions” (priority 2004, published 2009):

Legend:
[1] = Randomized ATP infusions in non-small-cell lung cancer patients, stage IIIB and IV; assay type: in vivo, human
Method: Patients with non-small-cell lung cancer, stage IIIB and IV, in the palliative treatment stage, were randomized to receive either ATP infusions (total of 10 infusions over 24 weeks) or no treatment. Outcome assessment (quality of life, blood values) was performed at regular intervals.

[2] = ATP infusions in pre-terminal cancer patients; assay type: in vivo, human
Method: (§1) Patients with different diseases received infusions of 10-75 μg/kg·min over 8-24 h, at intervals of 1-4 weeks in different randomized clinical trials. In all cases, the first. infusion was given under clinical supervision, subsequent infusions were given in the setting of private homes. Preliminary results in small numbers of patients with persistent rheumatoid arthritis, chronic fatigue syndrome, and cancer in the pre-terminal stage, and lung cancer during curative radiotherapy are given below.
This study was performed in patients of different tumour types with a life expectation of between 8 and 12 weeks. Patients received a maximum of 8 ATP infusions (8 h) at an infusion rate of max. 50 μg/kg·min. […] These subjective improvements were supported by objective outcome assessment using validated questionnaires for self-reliance (Groningen Activity Restriction Scale, GARS), fatigue (Short Fatigue Questionnaire, Smets et al.), and appetite (visual analogue scale, VAS). Below, some of the major effects in these five patients are summarized. Patient 1 (non-small-cell lung cancer): Despite a very low ATP dose (=20-30 μg/kg·min), this patient spontaneously reported that they felt more energetic. Before the study, the patient was not able to independently dress, undress, get in/out of bed, to get out of a chair, or to wash their hands, face or body. After 8 weeks of ATP, the patient was able to perform all of these activities independently. Over 8 weeks, their appetite improved markedly: EORTC-QLQ-30 (4-point scale): improvement from 4 to 1, and on VAS [0-100 mm], from 13 to 63 before lunch, and from 17 to 70 before dinner. The patient's treating pulmonologist concluded a “miraculous improvement” over the 8-week treatment period. On request of the patient, ATP infusions were continued. Patient 2 (primary liver carcinoma): This patient, who suffered from marked anorexia, spontaneously reported that they were “eating again like a building worker” after 8 weeks of ATP treatment. […] Furthermore, the patient felt less tired within 2 weeks of starting ATP infusions. Patient 3 (melanoma): This patient reported marked improvement in appetite. This was confirmed by outcome assessment (VAS), in addition, marked amelioration in fatigue and self reliance was found. After 8 infusion, the patient pledged to continue the ATP infusions. […] After 5 infusions, the patient decided that they felt so much better that they wanted to continue the infusions after the study. Patient 5 (pancreas cancer; study still ongoing): After 4 infusions, the patient noted to feel much more energetic.

TNF-α/IL-10 ratio = TNF-α/IL-10 ratio in whole blood incubated with H2O2 without LPS+PHA; assay type: cell-based, human; details: 300 μM ATP, 5 mM H2O2, no LPS+PHA
Method: FIG. 14 Effect of ATP on cytokine secretion in whole blood under conditions of oxidative stress. Blood was pre-incubated with ATP or no ATP (control) for 30 min, followed by incubation with H2O2 (5 mM) or 24 h, without addition of LPS+PHA. The TNF-α and IL-10 released into the supernatant was analyzed using the ELISA method. Results are expressed in percentage, 100% being the TNF-α/IL-10 ratio when blood was incubated with H2O2 only, but no ATP (control). The TNF-alpha/IL-10 ratio was reduced by ATP in a concentration-dependent manner, with a 90% reduction at 300 μM ATP, indicating inhibition of inflammatory response.
This experiment was performed to test the effects of ATP under circumstances of oxidative stress in healthy subjects, but without LPS-PHA induced stimulation of cytokine production. Whole blood was collected as described for experiment 2, and was pre-incubated with ATP at final concentrations of 100-300 μM, or no ATP (control), for 30 min. Then, blood was incubated with H2O2 (5 mM) or 24 h, without addition of LPS+PHA. and incubated for 24 hours with 5 mM H2O2 at 5% CO2 and 37° C. Cytokine production was measured as in Experiment 2. Results were expressed as the TNF-α/IL-10 ratio relative to the control condition (H2O2 without ATP).

IL-10 = experiment: LPS+PHA-induced IL-10 secretion in whole blood under oxidative stress (H2O2); assay type: cell-based, human
Method: FIG. 11 Effect of ATP on LPS+PHA-induced IL-10 secretion in whole blood from healthy subjects under conditions of oxidative stress. Two concentrations of H2O2 (1 and 10 mM) were added to whole blood, together with the indicated concentrations of ATP. Then, blood was exposed to 10 μg/ml LPS and 1 μg/ml PHA, and incubated for 24 h. The IL-10 released into the supernatants was analyzed using the ELISA method. […] Data are expressed as the mean values; error bars represent SEM.
Whole blood of healthy subjects was collected as described for Experiment 2, and pre-incubated with 1 or 10 mM H2O2 at 5% CO2 and 37° C. for 15 min. Then, ATP was added to the blood at final concentrations of 1-300 μM for the 30 min incubation step, and then incubated as in Experiment 2 with LPS/PHA for 24 hours.

[3] = system: guinea pig alveolar macrophages; experiment: Guinea pig alveolar macrophages incubated with LPS and spin-trap DMPO; assay type: cell-based
Source text: As mentioned above, ATP is known to enhance the oxidative burst of neutrophils and other phagocytic cells. […] In a study using guinea pig alveolar macrophages (according to (35, 36)) we confirmed the ATP dependent increase in H2O2 formation. […] This finding underlines the importance and practical relevance of the present invention that ATP attenuates of hydroxyl radical DMPO adduct formation in a more chemically oriented set-up. Our finding that the formation of the DMPO—OH adducts is inhibited by the presence of ATP, also in incubations with alveolar macrophages, is of great promise for the protective effect of ATP in diseases and conditions in which oxidative stress plays a predominant role, as discussed on the previous pages.

[4] = ATP infusions in a patient with rheumatoid arthritis; assay type: in vivo, human
Method: as §1
[…] […] DAS score had decreased from 5.80 to 3.09 and CRP had decreased from 43 to 6 mg/L.; all other blood values were normal. MD's conclusion: marked decease of disease activity.

[5] = after 10 weekly infusions, 10-15 μg/kg·min

Nc1ncnc2c1ncn2[C@@H]1O[C@H](COP(=O)(O)OP(=O)(O)OP(=O)(O)O)[C@@H](O)[C@H]1O [ATP, Adenosine 5′-triphosphate]
plasma lactate dehydrogenase concentration ([1]; 24-week study period): remained stable
plasma triglyceride concentration ([1]; 24-week study period): remained stable
decreased sexual interest, compared to the control group ([1]; human, in vivo): normalization
dizziness, compared to the control group ([1]; human, in vivo): reduction
dry mouth, compared to the control group ([1]; human, in vivo): improvement
appetite VAS [0-100 mm] before dinner ([2]; Patient 1, before): 17 mm
appetite VAS [0-100 mm] before lunch ([2]; Patient 1, before): 13 mm
appetite, EORTC-QLQ-30 (4-point scale) ([2]; Patient 1, before): 4
appetite VAS [0-100 mm] before dinner ([2]; Patient 1, over 8 weeks of ATP): 70 mm
appetite VAS [0-100 mm] before lunch ([2]; Patient 1, over 8 weeks of ATP): 63 mm
appetite, EORTC-QLQ-30 (4-point scale) ([2]; Patient 1, over 8 weeks of ATP): 1
appetite VAS (0-100) ([2]; Patient 2, before): 20
appetite VAS (0-100) ([2]; Patient 2, within 4 weeks): 95
fatigue, 7-point scale (mean of four items of SFQ) ([2]; Patient 4, after 4 weeks of ATP infusions): 5.8
fatigue, 7-point scale (mean of four items of SFQ) ([2]; Patient 4, before): 2.8
patients spontaneously reporting marked improvements ([2]; patients who had completed >4 ATP infusions): 5 out of 19
reduction in the TNF-α/IL-10 ratio (TNF-α/IL-10 ratio): 90%
increase in IL-10 release (IL-10; 300 μM ATP, 1 or 10 mM H2O2, LPS-PHA): 50-60%
effect on LPS+PHA-induced IL-10 release (IL-10; 1 or 10 mM H2O2): significantly increased
effect on H2O2 formation [3]: increase
effect on DMPO—OH adduct formation ([3]; macrophages incubated with LPS): inhibited
joint swelling and pain ([4]; after 10 infusions): markedly decreased
CRP [4, 5]: 6 mg/L
DAS score [4, 5]: 3.09
CRP ([4]; before ATP): 43 mg/L
DAS score ([4]; before ATP): 5.80
